Active and inactive are the calls of the source. The calls are words filed in the database; no cut-off is given here.
Legend:
[1] = test system: HepG2; assay: Antiproliferative activity against human HepG2 cells assessed as reduction in cell viability at 20 uM measured after 48 hrs by MTT assay relative to control; type: functional
[2] = test system: Bel-7402; assay: Antiproliferative activity against human Bel-7402 cells assessed as reduction in cell viability at 20 uM measured after 48 hrs by MTT assay; type: functional, cell-based
[3] = test system: Bel-7402; assay: Antiproliferative activity against human Bel-7402 cells assessed as reduction in cell viability measured after 48 to 72 hrs by MTT assay; type: functional, cell-based
[4] = test system: HepG2; assay: Antiproliferative activity against human HepG2 cells assessed as reduction in cell viability measured after 48 to 72 hrs by MTT assay; type: functional, cell-based
[5] = Antiproliferative activity against human NCM460 cells assessed as reduction in cell viability measured after 48 to 72 hrs by MTT assay; type: toxicity, cell-based
[6] = Antiproliferative activity against human L02 cells assessed as reduction in cell viability measured after 48 to 72 hrs by MTT assay; type: toxicity, cell-based
[7] = test system: Bel-7402; assay: Antiproliferative activity against human Bel-7402 cells assessed as reduction in cell viability at 20 uM measured after 48 hrs by MTT assay relative to control; type: functional
[8] = test system: HepG2; assay: Antitumor activity against human HepG2 cells xenografted in mouse model assessed as tumor growth inhibition at 150 mg/kg/day for 7 days relative to control; type: functional; settings: HepG2, 168 h, time 7 day, read-out: TGI
[9] = Toxicity in orthotopic mouse assessed as effect on spleen at 60 mg/kg, iv administered twice daily for 18 days by H and E staining based analysis; type: organism-based; settings: in vivo, 432 h, time 18 day
[10] = Toxicity in orthotopic mouse assessed as effect on drug tolerance at 60 mg/kg, iv administered twice daily for 18 days; type: organism-based; settings: in vivo, 432 h, time 18 day
[11] = Toxicity in orthotopic mouse assessed as effect on lung at 60 mg/kg, iv administered twice daily for 18 days by H and E staining based analysis; type: organism-based; settings: in vivo, 432 h, time 18 day
[12] = test system: HepG2; assay: Antitumor activity against human HepG2 cells xenografted in orthotopic mouse model assessed as tumor growth inhibition at 60 mg/kg, iv administered twice daily for 18 days in presence of 5-Fluorouracil relative to control; type: functional; settings: HepG2, 432 h, time 18 day, read-out: TGI
[13] = Toxicity in orthotopic mouse assessed as effect on kidney at 60 mg/kg, iv administered twice daily for 18 days by H and E staining based analysis; type: organism-based; settings: in vivo, 432 h, time 18 day
[14] = Toxicity in orthotopic mouse assessed as effect on body weight at 60 mg/kg, iv administered twice daily for 18 days; type: organism-based; settings: in vivo, 432 h, time 18 day
[15] = Toxicity in orthotopic mouse assessed as change in liver weight at 60 mg/kg, iv administered twice daily for 18 days; type: organism-based; settings: in vivo, 432 h, time 18 day
[16] = Toxicity in orthotopic mouse assessed as effect on heart at 60 mg/kg, iv administered twice daily for 18 days by H and E staining based analysis; type: organism-based; settings: in vivo, 432 h, time 18 day
[17] = test system: HepG2; assay: Antitumor activity against human HepG2 cells xenografted in mouse model assessed as tumor growth inhibition at 100 mg/kg/day for 7 days relative to control; type: functional; settings: HepG2, 168 h, time 7 day, read-out: TGI
[18] = test system: HepG2; assay: Antitumor activity against human HepG2 cells xenografted in orthotopic mouse model assessed as average number of tumor at 60 mg/kg, iv administered twice daily for 18 days in presence of 5-Fluorouracil (reference value: 49+/3.6 mM); type: functional; settings: time 18 day
[19] = Toxicity in orthotopic mouse assessed as effect on liver at 60 mg/kg, iv administered twice daily for 18 days by H and E staining based analysis; type: organism-based; settings: in vivo, 432 h, time 18 day
[20] = test system: Bel-7402; assay: Antiproliferative activity against human Bel-7402 cells assessed as reduction in cell viability at 20 uM measured after 48 to 72 hrs in presence of 5-Fluorouracil by MTT assay; type: functional, cell-based; settings: time 48-72 hrs
[21] = test system: HepG2; assay: Antiproliferative activity against human HepG2 cells assessed as reduction in cell viability at 20 uM measured after 48 to 72 hrs in presence of 5-Fluorouracil by MTT assay; type: functional, cell-based; settings: time 48-72 hrs

| Structure (SMILES) | Activity [1] [%] | IC50 [3] [µM] | IC50 [4] [µM] | IC50 [5] [µM] | IC50 [6] [µM] | Activity [7] [%] | further results |
| --- | --- | --- | --- | --- | --- | --- | --- |
| CCC(C)[C@H](N)C(=O)O[C@H]1C[C@H](n2cc(F)c(=O)[nH]c2=O)O[C@@H]1CO[P@@](=O)(N[C@@H](C)C(=O)OC(C)C)Oc1ccccc1 (some centres undefined) | >50 | 9.11 | 15.2 | > 100 | > 100 |  | Activity [2]: Active |
| Cc1ccccc1CO[P@](=O)(N[C@@H](C)C(=O)OC(C)C)OC[C@H]1O[C@@H](n2cc(F)c(=O)[nH]c2=O)C[C@@H]1O |  | 0.73 | 0.59 | > 100 | > 100 |  |  |
| CC(C)OC(=O)[C@H](C)N[P@](=O)(OC[C@H]1O[C@@H](n2cc(F)c(=O)[nH]c2=O)C[C@@H]1OC(=O)OC(C)(C)C)Oc1ccccc1 | 50 |  |  |  |  | 50 |  |
| CC(C)C[C@H](NC(=O)CN)C(=O)O[C@H]1C[C@H](n2cc(F)c(=O)[nH]c2=O)O[C@@H]1CO[P@@](=O)(N[C@@H](C)C(=O)OC(C)C)Oc1ccccc1 | 50 |  |  |  |  | 50 |  |
| CCC(C)[C@H](NC(=O)OC(C)(C)C)C(=O)O[C@H]1C[C@H](n2cc(F)c(=O)[nH]c2=O)O[C@@H]1CO[P@@](=O)(N[C@@H](C)C(=O)OC(C)C)Oc1ccccc1 (some centres undefined) |  | 8.99 | 48.7 | > 100 | > 100 | >60 |  |
| CC(C)OC(=O)[C@H](C)N[P@](=O)(OC[C@H]1O[C@@H](n2cc(F)c(=O)[nH]c2=O)C[C@@H]1OC(=O)[C@H](C)NC(=O)CNC(=O)OC(C)(C)C)Oc1ccccc1 | 50 |  |  |  |  | 50 |  |
| CC(C)OC(=O)[C@H](C)N[P@](=O)(OC[C@H]1O[C@@H](n2cc(F)c(=O)[nH]c2=O)C[C@@H]1OC(=O)[C@H](CC(=O)OC(C)(C)C)NC(=O)OC(C)(C)C)Oc1ccccc1 |  | 3.77 | 19.9 | > 100 | > 100 | >60 |  |
| CC(C)C[C@H](N)C(=O)O[C@H]1C[C@H](n2cc(F)c(=O)[nH]c2=O)O[C@@H]1CO[P@@](=O)(N[C@@H](C)C(=O)OC(C)C)Oc1ccccc1 |  |  |  |  |  |  | Activity [2]: Active |
| CC(C)OC(=O)[C@H](C)N[P@](=O)(OC[C@H]1O[C@@H](n2cc(F)c(=O)[nH]c2=O)C[C@@H]1OC(=O)[C@H](Cc1ccccc1)NC(=O)OC(C)(C)C)Oc1ccccc1 |  | 7.18 | 28.7 | > 100 | > 100 | >60 |  |
| C[C@H](N[P@](=O)(OC[C@H]1O[C@@H](n2cc(F)c(=O)[nH]c2=O)C[C@@H]1O)Oc1cccc2ccccc12)C(=O)OCc1ccccc1 | <10 | > 100 | > 100 | > 100 | > 100 | <10 |  |
| CC(C)OC(=O)[C@H](C)N[P@](=O)(OC[C@H]1O[C@@H](n2cc(F)c(=O)[nH]c2=O)C[C@@H]1OC(=O)[C@@H](N)Cc1ccccc1)Oc1ccccc1 |  |  |  |  |  |  | Activity [2]: Active |
| CC(C)C[C@H](N)C(=O)NCC(=O)O[C@H]1C[C@H](n2cc(F)c(=O)[nH]c2=O)O[C@@H]1CO[P@@](=O)(N[C@@H](C)C(=O)OC(C)C)Oc1ccccc1 | 50 |  |  |  |  | 50 |  |
| CC(C)C[C@H](NC(=O)CNC(=O)OC(C)(C)C)C(=O)O[C@H]1C[C@H](n2cc(F)c(=O)[nH]c2=O)O[C@@H]1CO[P@@](=O)(N[C@@H](C)C(=O)OC(C)C)Oc1ccccc1 | >50 |  |  |  |  |  |  |
| CC(C)OC(=O)[C@H](C)N[P@](=O)(OC[C@H]1O[C@@H](n2cc(F)c(=O)[nH]c2=O)C[C@@H]1OC(=O)CN)Oc1ccccc1 |  |  |  |  |  |  | Activity [2]: Active |
| CC(C)OC(=O)[C@H](C)N[P@](=O)(OC[C@H]1O[C@@H](n2cc(F)c(=O)[nH]c2=O)C[C@@H]1O)Oc1ccccc1 |  | 18.2 | 36.2 | > 100 | > 100 |  | inhibition in vivo at 150 mg/kg/day [8]: 68%; Activity [9]: Non-Toxic; Activity [10]: Non-Toxic; Activity [11]: Non-Toxic; inhibition in vivo at 60 mg/kg [12]: 57.1%; Activity [13]: Non-Toxic; Activity [14]: Non-Toxic; Activity [15]: Toxic; Activity [16]: Non-Toxic; inhibition in vivo at 100 mg/kg/day [17]: 52%; tumour count [18]: 21; Activity [19]: Non-Toxic; Activity [20]: Active; Activity [21]: Active |
| CC(C)OC(=O)[C@H](C)N[P@](=O)(OC[C@H]1O[C@@H](n2cc(F)c(=O)[nH]c2=O)C[C@@H]1OC(=O)[C@H](C)N)Oc1ccccc1 |  |  |  |  |  |  | Activity [2]: Active |
| CC(C)OC(=O)[C@H](C)N[P@](=O)(OC[C@H]1O[C@@H](n2cc(F)c(=O)[nH]c2=O)C[C@@H]1OC(=O)CNC(=O)OC(C)(C)C)Oc1ccccc1 | >50 | 10.1 | 17.5 | > 100 | > 100 | >60 |  |
| CC(C)OC(=O)[C@H](C)N[P@](=O)(OC[C@H]1O[C@@H](n2cc(F)c(=O)[nH]c2=O)C[C@@H]1OC(=O)[C@H](Cc1ccccc1)NC(=O)[C@@H](N)C(C)C)Oc1ccccc1 | 50 |  |  |  |  | 50 |  |
| CC(C)OC(=O)[C@H](C)N[P@](=O)(OC[C@H]1O[C@@H](n2cc(F)c(=O)[nH]c2=O)C[C@@H]1OC(=O)[C@H](Cc1ccccc1)NC(=O)[C@@H](NC(=O)OC(C)(C)C)C(C)C)Oc1ccccc1 |  | 13.2 | 34.1 | > 100 | > 100 |  |  |
| CC(C)OC(=O)[C@H](C)N[P@](=O)(OC[C@H]1O[C@@H](n2cc(F)c(=O)[nH]c2=O)C[C@@H]1OC(=O)[C@@H](N)CC(=O)O)Oc1ccccc1 |  |  |  |  |  |  | Activity [2]: Active |
| CC(C)OC(=O)[C@H](C)N[P@](=O)(OC[C@H]1O[C@@H](n2cc(F)c(=O)[nH]c2=O)C[C@@H]1OC(=O)[C@H](C)NC(=O)CN)Oc1ccccc1 | 50 |  |  |  |  | 50 |  |
| CC(C)C[C@H](NC(=O)OC(C)(C)C)C(=O)NCC(=O)O[C@H]1C[C@H](n2cc(F)c(=O)[nH]c2=O)O[C@@H]1CO[P@@](=O)(N[C@@H](C)C(=O)OC(C)C)Oc1ccccc1 | 50 |  |  |  |  | 50 |  |
| CC(C)C[C@H](NC(=O)OC(C)(C)C)C(=O)O[C@H]1C[C@H](n2cc(F)c(=O)[nH]c2=O)O[C@@H]1CO[P@@](=O)(N[C@@H](C)C(=O)OC(C)C)Oc1ccccc1 |  | 9.68 | 21.2 | > 100 | > 100 | >60 |  |
